Source: patent publication US11541028B2, “Peptide pharmaceuticals for treatment of NASH and other disorders” (Mederis Diabetes LLC, priority 2018, dated 2023)

Columns and labels:
[1] = target: T1, human GLP-1 receptor (Homo sapiens, UniProt P43220); test: DiscoveRx LeadHunter cellular assay, cAMP stimulation, GLP-1 receptor in CHO cells; type: cell-based; conditions: human GLP-1 receptor in CHO cells (DiscoveRx); read-out: EC50 cAMP GLP-1 R
T1 construct: host or cells: CHO cells
Method: (§1) A further series of cellular assays was carried out with standard cellular assays (DiscoveRx, LeadHunter assays) using readout of cAMP stimulation or arrestin activation. Compounds were weighed precisely in an amount of about 1 mg and shipped to DiscoveRx for dilution and assay.

[2] = target: T2, human glucagon receptor (Homo sapiens, UniProt P47871); test: DiscoveRx LeadHunter cellular assay, cAMP stimulation, glucagon receptor in CHO cells; type: cell-based
T2 construct: host or cells: CHO cells
T2 sequence (P47871 26-477): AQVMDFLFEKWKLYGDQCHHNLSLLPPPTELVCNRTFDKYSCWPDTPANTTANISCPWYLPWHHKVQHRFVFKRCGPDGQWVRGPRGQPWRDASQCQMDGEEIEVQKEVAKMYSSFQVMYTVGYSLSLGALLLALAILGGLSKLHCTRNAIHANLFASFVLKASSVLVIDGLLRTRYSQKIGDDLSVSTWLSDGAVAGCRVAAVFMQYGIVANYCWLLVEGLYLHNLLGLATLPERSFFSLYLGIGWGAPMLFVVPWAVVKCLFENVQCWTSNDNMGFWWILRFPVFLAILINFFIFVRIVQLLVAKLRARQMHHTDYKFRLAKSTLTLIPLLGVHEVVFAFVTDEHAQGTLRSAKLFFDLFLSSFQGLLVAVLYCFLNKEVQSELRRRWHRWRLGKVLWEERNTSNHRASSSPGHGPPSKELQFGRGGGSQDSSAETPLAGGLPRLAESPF
Method: as §1

T1 sequence (P43220 24-463): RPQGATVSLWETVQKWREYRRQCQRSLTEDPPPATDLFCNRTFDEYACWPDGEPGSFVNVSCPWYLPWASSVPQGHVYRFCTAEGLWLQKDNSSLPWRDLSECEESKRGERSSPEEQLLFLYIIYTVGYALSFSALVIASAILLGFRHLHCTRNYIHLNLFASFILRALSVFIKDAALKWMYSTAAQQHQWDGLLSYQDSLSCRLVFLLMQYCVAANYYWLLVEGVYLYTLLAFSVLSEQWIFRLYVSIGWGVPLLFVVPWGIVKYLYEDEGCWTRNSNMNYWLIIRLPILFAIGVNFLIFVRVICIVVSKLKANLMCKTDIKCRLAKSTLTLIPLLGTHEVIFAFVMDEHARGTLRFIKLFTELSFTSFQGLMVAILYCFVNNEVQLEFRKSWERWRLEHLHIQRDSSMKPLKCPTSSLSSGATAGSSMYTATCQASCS

| SMILES | EC50 [1] [nM] | EC50 [2] [nM] |
| --- | --- | --- |
| CCCCCCCCCCCCCCO[C@@H]1O[C@H](CO[C@H]2O[C@H](C(=O)N[C@@H](CCC(=O)NCCCC[C@H](NC(=O)[C@@H](NC(=O)[C@H](Cc3ccccc3)NC(=O)[C@H](CCC(=O)O)NC(=O)[C@@H]3CCCCNC(=O)CC[C@H](NC(=O)[C@H](CC(=O)O)NC(=O)[C@H](CC(C)C)NC(=O)[C@H](Cc4ccc(O)cc4)NC(=O)[C@H](CCCCN)NC(=O)[C@H](CO)NC(=O)[C@H](Cc4ccc(O)cc4)NC(=O)[C@H](CC(=O)O)NC(=O)[C@H](CO)NC(=O)[C@@H](NC(=O)[C@H](Cc4ccccc4)NC(=O)[C@@H](NC(=O)CNC(=O)[C@H](CCC(N)=O)NC(=O)C(C)(C)NC(=O)[C@@H](N)Cc4c[nH]cn4)[C@@H](C)O)[C@@H](C)O)C(=O)N[C@@H](CCC(N)=O)C(=O)N[C@@H](C)C(=O)N[C@@H](C)C(=O)N3)[C@@H](C)CC)C(=O)N[C@@H](Cc3c[nH]c4ccccc34)C(=O)N[C@@H](CC(C)C)C(=O)N[C@@H](CC(C)C)C(=O)N[C@@H](CCC(N)=O)C(=O)N[C@H](C(N)=O)[C@@H](C)O)C(=O)O)[C@H](O)[C@H](O)[C@H]2O)[C@@H](O)[C@H](O)[C@H]1O [EU-A1607] | 0.022 | 0.126 |
| CCCCCCCCCCCCO[C@@H]1O[C@H](CO[C@H]2O[C@H](C(=O)NCCCC[C@H](N)C(=O)NCCCC[C@H](NC(=O)[C@@H](NC(=O)[C@H](Cc3ccccc3)NC(=O)[C@H](CCC(=O)O)NC(=O)[C@@H]3CCCCNC(=O)CC[C@H](NC(=O)[C@H](CC(=O)O)NC(=O)[C@H](CC(C)C)NC(=O)[C@H](Cc4ccc(O)cc4)NC(=O)[C@H](CCCCN)NC(=O)[C@H](CO)NC(=O)[C@H](Cc4ccc(O)cc4)NC(=O)[C@H](CC(=O)O)NC(=O)[C@H](CO)NC(=O)[C@@H](NC(=O)[C@H](Cc4ccccc4)NC(=O)[C@@H](NC(=O)CNC(=O)[C@H](CCC(N)=O)NC(=O)C(C)(C)NC(=O)[C@@H](N)Cc4c[nH]cn4)[C@@H](C)O)[C@@H](C)O)C(=O)N[C@@H](CCC(N)=O)C(=O)N[C@@H](C)C(=O)N[C@@H](C)C(=O)N3)[C@@H](C)CC)C(=O)N[C@@H](Cc3c[nH]c4ccccc34)C(=O)N[C@@H](CC(C)C)C(=O)N[C@@H](CC(C)C)C(=O)N[C@@H](CCC(N)=O)C(=O)N[C@H](C(=O)O)[C@@H](C)O)[C@H](O)[C@H](O)[C@H]2O)[C@@H](O)[C@H](O)[C@H]1O [EU-A1611] | 0.015 | 0.16 |
| CCCCCCCCCCCCCCO[C@@H]1O[C@H](CO[C@H]2O[C@H](C(=O)NCCCC[C@H](N)C(=O)NCCCC[C@H](NC(=O)[C@@H](NC(=O)[C@H](Cc3ccccc3)NC(=O)[C@H](CCC(=O)O)NC(=O)[C@@H]3CCCCNC(=O)CC[C@H](NC(=O)[C@H](CC(=O)O)NC(=O)[C@H](CC(C)C)NC(=O)[C@H](Cc4ccc(O)cc4)NC(=O)[C@H](CCCCN)NC(=O)[C@H](CO)NC(=O)[C@H](Cc4ccc(O)cc4)NC(=O)[C@H](CC(=O)O)NC(=O)[C@H](CO)NC(=O)[C@@H](NC(=O)[C@H](Cc4ccccc4)NC(=O)[C@@H](NC(=O)CNC(=O)[C@H](CCC(N)=O)NC(=O)C(C)(C)NC(=O)[C@@H](N)Cc4c[nH]cn4)[C@@H](C)O)[C@@H](C)O)C(=O)N[C@@H](CCC(N)=O)C(=O)N[C@@H](C)C(=O)N[C@@H](C)C(=O)N3)[C@@H](C)CC)C(=O)N[C@@H](Cc3c[nH]c4ccccc34)C(=O)N[C@@H](CC(C)C)C(=O)N[C@@H](CC(C)C)C(=O)N[C@@H](CCC(N)=O)C(=O)N[C@H](C(=O)O)[C@@H](C)O)[C@H](O)[C@H](O)[C@H]2O)[C@@H](O)[C@H](O)[C@H]1O [EU-A1612] | 0.011 | 0.059 |
| CCCCCCCCCCCCO[C@@H]1O[C@H](CO[C@H]2O[C@H](C(=O)N[C@@H](CCC(=O)NCCCC[C@H](NC(=O)[C@@H](NC(=O)[C@H](Cc3ccccc3)NC(=O)[C@H](CCC(=O)O)NC(=O)[C@@H]3CCCCNC(=O)CC[C@H](NC(=O)[C@H](CC(=O)O)NC(=O)[C@H](CC(C)C)NC(=O)[C@H](Cc4ccc(O)cc4)NC(=O)[C@H](CCCCN)NC(=O)[C@H](CO)NC(=O)[C@H](Cc4ccc(O)cc4)NC(=O)[C@H](CC(=O)O)NC(=O)[C@H](CO)NC(=O)[C@@H](NC(=O)[C@H](Cc4ccccc4)NC(=O)[C@@H](NC(=O)CNC(=O)[C@H](CCC(N)=O)NC(=O)C(C)(C)NC(=O)[C@@H](N)Cc4c[nH]cn4)[C@@H](C)O)[C@@H](C)O)C(=O)N[C@@H](CCC(N)=O)C(=O)N[C@@H](C)C(=O)N[C@@H](C)C(=O)N3)[C@@H](C)CC)C(=O)N[C@@H](Cc3c[nH]c4ccccc34)C(=O)N[C@@H](CC(C)C)C(=O)N[C@@H](CC(C)C)C(=O)N[C@@H](CCC(N)=O)C(=O)N[C@H](C(=O)O)[C@@H](C)O)C(=O)O)[C@H](O)[C@H](O)[C@H]2O)[C@@H](O)[C@H](O)[C@H]1O [EU-A1616] | 0.079 | 0.204 |
| CCCCCCCCCCCCCCO[C@@H]1O[C@H](CO[C@H]2O[C@H](C(=O)N[C@@H](CCC(=O)NCCCC[C@H](NC(=O)[C@@H](NC(=O)[C@H](Cc3ccccc3)NC(=O)[C@H](CCC(=O)O)NC(=O)[C@@H]3CCCCNC(=O)CC[C@H](NC(=O)[C@H](CC(=O)O)NC(=O)[C@H](CC(C)C)NC(=O)[C@H](Cc4ccc(O)cc4)NC(=O)[C@H](CCCCN)NC(=O)[C@H](CO)NC(=O)[C@H](Cc4ccc(O)cc4)NC(=O)[C@H](CC(=O)O)NC(=O)[C@H](CO)NC(=O)[C@@H](NC(=O)[C@H](Cc4ccccc4)NC(=O)[C@@H](NC(=O)CNC(=O)[C@H](CCC(N)=O)NC(=O)C(C)(C)NC(=O)[C@@H](N)Cc4c[nH]cn4)[C@@H](C)O)[C@@H](C)O)C(=O)N[C@@H](CCC(N)=O)C(=O)N[C@@H](C)C(=O)N[C@@H](C)C(=O)N3)[C@@H](C)CC)C(=O)N[C@@H](Cc3c[nH]c4ccccc34)C(=O)N[C@@H](CC(C)C)C(=O)N[C@@H](CC(C)C)C(=O)N[C@@H](CCC(N)=O)C(=O)N[C@H](C(=O)O)[C@@H](C)O)C(=O)O)[C@H](O)[C@H](O)[C@H]2O)[C@@H](O)[C@H](O)[C@H]1O [EU-A1617] | 0.119 | 0.598 |
| CCCCCCCCCCCCO[C@@H]1O[C@H](CO[C@H]2O[C@H](C(=O)N[C@@H](CCC(=O)N[C@@H](CCC(=O)NCCCC[C@H](NC(=O)[C@@H](NC(=O)[C@H](Cc3ccccc3)NC(=O)[C@H](CCC(=O)O)NC(=O)[C@@H]3CCCCNC(=O)CC[C@H](NC(=O)[C@H](CC(=O)O)NC(=O)[C@H](CC(C)C)NC(=O)[C@H](Cc4ccc(O)cc4)NC(=O)[C@H](CCCCN)NC(=O)[C@H](CO)NC(=O)[C@H](Cc4ccc(O)cc4)NC(=O)[C@H](CC(=O)O)NC(=O)[C@H](CO)NC(=O)[C@@H](NC(=O)[C@H](Cc4ccccc4)NC(=O)[C@@H](NC(=O)CNC(=O)[C@H](CCC(N)=O)NC(=O)C(C)(C)NC(=O)[C@@H](N)Cc4c[nH]cn4)[C@@H](C)O)[C@@H](C)O)C(=O)N[C@@H](CCC(N)=O)C(=O)N[C@@H](C)C(=O)N[C@@H](C)C(=O)N3)[C@@H](C)CC)C(=O)N[C@@H](Cc3c[nH]c4ccccc34)C(=O)N[C@@H](CC(C)C)C(=O)N[C@@H](CC(C)C)C(=O)N[C@@H](CCC(N)=O)C(=O)N[C@H](C(=O)O)[C@@H](C)O)C(=O)O)C(=O)O)[C@H](O)[C@H](O)[C@H]2O)[C@@H](O)[C@H](O)[C@H]1O [EU-A1620] | 0.051 | 0.24 |
| CCCCCCCCCCCCCCO[C@@H]1O[C@H](CO[C@H]2O[C@H](C(=O)N[C@@H](CCC(=O)N[C@@H](CCC(=O)NCCCC[C@H](NC(=O)[C@@H](NC(=O)[C@H](Cc3ccccc3)NC(=O)[C@H](CCC(=O)O)NC(=O)[C@@H]3CCCCNC(=O)CC[C@H](NC(=O)[C@H](CC(=O)O)NC(=O)[C@H](CC(C)C)NC(=O)[C@H](Cc4ccc(O)cc4)NC(=O)[C@H](CCCCN)NC(=O)[C@H](CO)NC(=O)[C@H](Cc4ccc(O)cc4)NC(=O)[C@H](CC(=O)O)NC(=O)[C@H](CO)NC(=O)[C@@H](NC(=O)[C@H](Cc4ccccc4)NC(=O)[C@@H](NC(=O)CNC(=O)[C@H](CCC(N)=O)NC(=O)C(C)(C)NC(=O)[C@@H](N)Cc4c[nH]cn4)[C@@H](C)O)[C@@H](C)O)C(=O)N[C@@H](CCC(N)=O)C(=O)N[C@@H](C)C(=O)N[C@@H](C)C(=O)N3)[C@@H](C)CC)C(=O)N[C@@H](Cc3c[nH]c4ccccc34)C(=O)N[C@@H](CC(C)C)C(=O)N[C@@H](CC(C)C)C(=O)N[C@@H](CCC(N)=O)C(=O)N[C@H](C(=O)O)[C@@H](C)O)C(=O)O)C(=O)O)[C@H](O)[C@H](O)[C@H]2O)[C@@H](O)[C@H](O)[C@H]1O [EU-A1622] | 0.774 | 2.08 |
| CCCCCCCCCCCCCCO[C@@H]1O[C@H](CO[C@H]2O[C@H](C(=O)N[C@@H](CCC(=O)N[C@@H](CCC(=O)NCCCC[C@H](NC(=O)[C@@H](NC(=O)[C@H](Cc3ccccc3)NC(=O)[C@H](CCC(=O)O)NC(=O)[C@@H]3CCCCNC(=O)CC[C@H](NC(=O)[C@H](CC(=O)O)NC(=O)[C@H](CC(C)C)NC(=O)[C@H](Cc4ccc(O)cc4)NC(=O)[C@H](CCCCN)NC(=O)[C@H](CO)NC(=O)[C@H](Cc4ccc(O)cc4)NC(=O)[C@H](CC(=O)O)NC(=O)[C@H](CO)NC(=O)[C@@H](NC(=O)[C@H](Cc4ccccc4)NC(=O)[C@@H](NC(=O)CNC(=O)[C@H](CCC(N)=O)NC(=O)C(C)(C)NC(=O)[C@@H](N)Cc4c[nH]cn4)[C@@H](C)O)[C@@H](C)O)C(=O)N[C@@H](CCC(N)=O)C(=O)N[C@@H](C)C(=O)N[C@@H](C)C(=O)N3)[C@@H](C)CC)C(=O)N[C@@H](Cc3c[nH]c4ccccc34)C(=O)N[C@@H](CC(C)C)C(=O)N[C@@H](CC(C)C)C(=O)N[C@@H](CCC(N)=O)C(=O)N[C@H](C(N)=O)[C@@H](C)O)C(=O)O)C(=O)O)[C@H](O)[C@H](O)[C@H]2O)[C@@H](O)[C@H](O)[C@H]1O [EU-A1627] | 0.304 | 0.705 |
